Measurements: US10858357B2, “Water-soluble myosin 2 inhibitors for the treatment of neurological, neuropathic or psychiatric diseases” (PARIS SCIENCES ET LETTRES-QUARTIER LATIN, priority 2016, dated 2020)
Where two headings read alike, the source gives them in different places.

Experiments:
[1] = molecular target: T1, rabbit skeletal muscle myosin S1 (SkS1) (Oryctolagus cuniculus, UniProt Q28641); assay: Steady state MgATPase, NADH-coupled assay, SkS1; format: biochemical
T1 construct: SkS1 (rabbit skeletal S1 fragment); from tissue; host or cells: rabbit skeletal muscle
Procedure: (§1) MgATPase activities of 500 nM (for basal ATPase) or 50 nM (for actin activated ATPase) SkS1 (rabbit skeletal S1 fragment) 23 and 1 μM (for basal ATPase) or 300 nM (for actin activated ATPase) DdMD were measured at increasing concentrations of neurelaxin-A in the absence or in the presence of 45 μM actin for SkS1 or 15 μM actin for DdMD. Measurements were carried out using a pyruvate kinase/lactate dehydrogenase coupled assay (NADH-coupled assay) (Kovacs M. et al., J. Biol. Chem. 2004, 279 (34), pp 35557-35563) at 25° C. or 20° C. in case of SkS1 or DdMD, respectively. Myosin and actin together with the indicated concentration of the inhibitor were pre-incubated for 5 minutes at room temperature and the measurements were initiated with 1 mM ATP. Data were corrected for background ATPase activity of actin. G-actin was prepared accordingly from rabbit skeletal muscle (Spudich, J. A. & Watt, S.; The Journal of Biological Chemistry 246, 1971, pp 4866-4871) and polymerized by 2 mM MgCl2 for 1 hour at room temperature. Measurements were performed in low salt buffer containing 5 mM HEPES, 2 mM MgCl2, 0.1 mM EGTA and 2 mM DTT at pH 7.2 or assay buffer containing 20 mM HEPES, 40 mM NaCl, 4 mM MgCl2 at pH 7.3 for basal ATPase activity measurements with DdMD.
(§2) The basal and actin activated ATPase activities of rabbit skeletal muscle myosin S1 (SkS1) and Dictyostelium discoideum myosin 2 motor domain (DdMD) were measured at increasing concentrations of neurelaxin-A (FIGS. 3A and 3B).

[2] = molecular target: T2, Dictyostelium discoideum myosin 2 motor domain (DdMD) (Dictyostelium discoideum, UniProt P08799); assay: Steady state MgATPase, NADH-coupled assay, DdMD; format: biochemical; details: for IC50: 20° C.
T2 construct: Dictyostelium discoideum myosin 2 motor domain (DdMD)
T2 sequence (P08799 86-759 limits assumed): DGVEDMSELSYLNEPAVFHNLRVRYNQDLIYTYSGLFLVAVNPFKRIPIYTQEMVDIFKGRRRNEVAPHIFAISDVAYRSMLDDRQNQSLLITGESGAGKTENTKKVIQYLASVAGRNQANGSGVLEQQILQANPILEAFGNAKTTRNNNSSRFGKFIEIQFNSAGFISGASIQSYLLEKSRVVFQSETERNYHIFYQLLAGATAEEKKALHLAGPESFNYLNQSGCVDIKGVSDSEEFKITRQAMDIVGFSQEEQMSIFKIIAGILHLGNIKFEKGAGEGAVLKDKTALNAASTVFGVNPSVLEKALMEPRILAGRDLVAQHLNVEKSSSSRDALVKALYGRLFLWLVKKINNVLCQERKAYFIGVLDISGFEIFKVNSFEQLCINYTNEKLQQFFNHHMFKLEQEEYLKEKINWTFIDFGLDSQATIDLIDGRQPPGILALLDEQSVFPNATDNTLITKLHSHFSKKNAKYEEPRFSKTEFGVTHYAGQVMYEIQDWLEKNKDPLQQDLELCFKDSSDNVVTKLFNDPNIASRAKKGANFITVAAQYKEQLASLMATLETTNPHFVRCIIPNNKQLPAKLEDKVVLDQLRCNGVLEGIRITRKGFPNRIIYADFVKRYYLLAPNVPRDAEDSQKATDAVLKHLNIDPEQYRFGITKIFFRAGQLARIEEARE
Procedure: as §1, §2

[3] = system: Mauthner axon of zebrafish embryos; assay: Mauthner axon regeneration after photoablation; format: in vivo; details: 3 dpf zebrafish embryos
Source text: The Mauthner neuron is a giant neuron in the hindbrain of zebrafish embryos, which is a widely used model for studying regeneration. The Mauthner axon of 3 dpf zebrafish embryos was photoablated with two-photon irradiation at 800 nm.

neurons = assay: Oxidative stress resistance (H2O2) of neurons; format: cell-based; details: 30 μM H2O2
Procedure: Hydrogen Peroxide (H2O2) is used for generating reactive oxygen species and consequently, leading to oxidative stress and neuronal loss.
In this experiment, the neurons were first incubated with 30 μM of H2O2 or not (witness sample). Then, the neurons were treated with DMSO solutions with or without Neurelaxin-A.

[4] = system: cannabinoid-induced working memory loss; assay: Novel object recognition (NOR) test with CP55,940; format: in vivo
Procedure: In this experiment, a novel object recognition (NOR) test was performed.
In this test animals are presented to two objects and it will explore them for a while. After, one of the objects is changed for a new and different one. Under normal circumstances animals will be attracted to the novel object and will spend more time exploring it, by comparison to the older and already known object. Animals with memory deficit will explore both objects equally.
The synthetic cannabinoid CB1R agonist CP55,940 is administrated 1 hour prior to the familiarization step. Thirty minutes prior to the familiarization animals are either treated or not with neurelaxin-A.

[5] = Fluorescence emission spectrum; format: physicochemical; details: 5 μM, λexc=350 nm, assay buffer 0.1% DMSO
Procedure: Fluorescence emission spectra (λexc=350 nm) were recorded in assay buffer containing 0.1% DMSO applying the inhibitors at 5 μM concentrations. The photoconversion measurements were carried out using 5 μM neurelaxin-A in assay buffer and irradiating the samples at 480±10 nm for 0, 5, 10 and 15 minutes using a Fluorescence Spectrometer (F900, Edinburgh Instruments) equipped with a 450 W Xenon Lamp. Their absorbance spectra were measured at each time point.
Fluorescence emission spectra (λexc.=350 nm) were recorded in assay buffer containing 0.1% DMSO comprising the inhibitor at 5 μM concentration.

T1 sequence (Q28641 1-843 limits assumed): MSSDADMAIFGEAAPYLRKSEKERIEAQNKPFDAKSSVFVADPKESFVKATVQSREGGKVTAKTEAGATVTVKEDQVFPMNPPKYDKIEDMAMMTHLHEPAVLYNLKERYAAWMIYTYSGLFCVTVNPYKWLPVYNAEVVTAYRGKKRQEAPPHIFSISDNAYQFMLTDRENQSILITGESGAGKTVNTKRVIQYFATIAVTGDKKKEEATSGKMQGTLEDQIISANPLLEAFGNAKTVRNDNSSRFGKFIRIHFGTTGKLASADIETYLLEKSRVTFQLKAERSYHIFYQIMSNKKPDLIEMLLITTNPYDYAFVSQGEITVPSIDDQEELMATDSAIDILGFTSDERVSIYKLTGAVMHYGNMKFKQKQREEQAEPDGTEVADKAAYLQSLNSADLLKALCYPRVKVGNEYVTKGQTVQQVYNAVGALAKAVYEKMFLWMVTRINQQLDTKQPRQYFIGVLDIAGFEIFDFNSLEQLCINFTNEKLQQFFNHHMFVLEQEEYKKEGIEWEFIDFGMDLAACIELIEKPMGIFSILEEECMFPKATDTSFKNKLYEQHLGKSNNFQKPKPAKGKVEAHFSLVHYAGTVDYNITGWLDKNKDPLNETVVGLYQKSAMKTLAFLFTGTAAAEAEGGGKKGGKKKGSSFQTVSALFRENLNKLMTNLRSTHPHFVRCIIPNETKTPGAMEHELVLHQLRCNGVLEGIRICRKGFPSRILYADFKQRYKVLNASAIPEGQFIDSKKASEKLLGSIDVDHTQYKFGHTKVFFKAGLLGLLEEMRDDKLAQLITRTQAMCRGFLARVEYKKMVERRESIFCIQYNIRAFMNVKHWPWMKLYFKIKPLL
T1 sequence (P02602 whole entry partner, the tested form may be a part): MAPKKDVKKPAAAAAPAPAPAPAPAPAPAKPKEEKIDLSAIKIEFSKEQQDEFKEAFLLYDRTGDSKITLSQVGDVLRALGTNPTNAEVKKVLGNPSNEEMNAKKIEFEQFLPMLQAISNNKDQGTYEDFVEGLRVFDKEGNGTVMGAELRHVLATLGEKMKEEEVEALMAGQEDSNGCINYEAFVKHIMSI

Cc1ccc2c(c1)C(=O)C1(O)CCN(c3ccc(N)cc3)C1=N2 (stereo not shown) [Neurelaxin-A, 1-(4-aminophenyl)-3a-hydroxy-6-methyl-3,3a-dihydro-1H-pyrrolo[2,3-b]quinolin-4(2H)-one]
maximal extent of inhibition, actin activated ATPase of SkS1 ([1]; actin activated): 98-100% | IC50 ([1]; actin activated, 50 nM SkS1, 45 μM actin, 25° C., read-out: IC50 actin activated ATPase activity of SkS1): 0.47 ± 0.06 µM | maximal extent of inhibition, basal ATPase of SkS1 ([1]; basal): 98-100% | IC50 ([1]; basal, 500 nM SkS1, 25° C., read-out: IC50 basal ATPase of SkS1): 1.3 ± 0.1 µM | inhibition reached, actin activated ATPase of DdMD ([2]; actin activated): 80% | IC50 ([2]; actin activated, 300 nM DdMD, 15 μM actin, read-out: IC50 actin activated ATPase activity of DdMD): 6.7 ± 1.9 µM | inhibition reached, basal ATPase of DdMD ([2]; basal): 90% | IC50 ([2]; basal, 1 μM DdMD, read-out: IC50 basal ATPase of DdMD): 6.6 ± 2 µM | maximum rate of axon growth [3]: 0.6 um/min | time after treatment at which axon regrowth is induced [3]: 1 h | time of treatment at which maximum rate of growth is reached [3]: 2 h | start of axon regrowth post-ablation ([3]; spontaneous regrowth normally after 30 hours): 19 h | neuronal survival and axon maintenance under oxidative stress (neurons): increased | NOR test: effect on memory without cannabinoid ([4]; animals non-treated with CP55,940): does not impact negatively the memory | NOR test: memory after cannabinoid exposure ([4]; pre-treated animals, CP55,940 exposure): are not affected by the cannabinoid exposure | fluorescence signal [5]: no fluorescence signal
